The source of these data is patent publication US10308643B2, “Heterocyclic compound” (Takeda Pharmaceutical Company Limited, priority 2015, dated 2019).

What all share (format): biochemical
Test [1] concerns the target T1, HDAC6 enzyme (Homo sapiens, UniProt Q9UBN7).
T1 construct: transducing full length HDAC1 and HDAC6 genes into Sf-9 insect cells; GST; purchased SignalChem; host or cells: Sf-9 insect cells
T1 sequence (Q9UBN7 1-1215): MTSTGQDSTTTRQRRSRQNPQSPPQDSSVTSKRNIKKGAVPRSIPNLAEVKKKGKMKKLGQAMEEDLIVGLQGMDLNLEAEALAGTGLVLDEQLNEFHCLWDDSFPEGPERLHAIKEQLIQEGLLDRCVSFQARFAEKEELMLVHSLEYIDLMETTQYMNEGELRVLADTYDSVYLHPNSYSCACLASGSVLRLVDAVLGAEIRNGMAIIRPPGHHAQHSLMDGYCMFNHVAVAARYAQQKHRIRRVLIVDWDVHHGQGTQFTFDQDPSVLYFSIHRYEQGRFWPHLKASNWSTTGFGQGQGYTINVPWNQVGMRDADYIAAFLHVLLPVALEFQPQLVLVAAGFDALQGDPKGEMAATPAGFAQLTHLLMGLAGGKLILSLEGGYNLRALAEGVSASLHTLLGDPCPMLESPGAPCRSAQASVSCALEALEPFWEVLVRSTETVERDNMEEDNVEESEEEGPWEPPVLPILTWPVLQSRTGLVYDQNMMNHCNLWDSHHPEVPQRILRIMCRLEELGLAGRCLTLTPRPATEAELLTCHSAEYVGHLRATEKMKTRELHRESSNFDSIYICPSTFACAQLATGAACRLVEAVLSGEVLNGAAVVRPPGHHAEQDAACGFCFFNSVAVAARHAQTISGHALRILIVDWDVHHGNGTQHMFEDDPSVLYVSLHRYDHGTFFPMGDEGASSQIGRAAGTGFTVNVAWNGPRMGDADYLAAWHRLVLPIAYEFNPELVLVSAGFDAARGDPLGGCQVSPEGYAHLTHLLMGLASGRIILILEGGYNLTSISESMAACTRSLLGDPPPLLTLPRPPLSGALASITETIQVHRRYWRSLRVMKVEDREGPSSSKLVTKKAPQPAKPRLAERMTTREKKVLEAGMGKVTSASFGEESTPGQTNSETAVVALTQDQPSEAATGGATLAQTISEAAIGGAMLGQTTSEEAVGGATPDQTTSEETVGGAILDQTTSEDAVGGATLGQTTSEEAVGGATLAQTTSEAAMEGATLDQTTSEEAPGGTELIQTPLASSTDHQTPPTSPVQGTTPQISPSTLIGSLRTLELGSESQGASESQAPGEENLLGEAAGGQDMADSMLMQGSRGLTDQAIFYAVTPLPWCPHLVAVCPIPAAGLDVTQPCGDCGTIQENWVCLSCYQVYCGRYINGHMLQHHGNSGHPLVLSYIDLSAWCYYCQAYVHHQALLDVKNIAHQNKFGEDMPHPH
Put plainly: HDAC1/6 Enzyme Inhibitory Assay (HDAC-Glo I/II Assay kit), HDAC6. The following applies: 1 μM test compound; wells without enzyme = 100% inhibition; read-out: HDAC6 inhibitory rate (%) (1 μM). The gist of the method:
(§1)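 Luminescent HDAC-Glo I/II read-out was taken 20 min after adding substrate-developer, at room temperature. Before this, compound and enzyme were held together for 60 min in 24 mM Tris-HCl pH 7.5 with 0.6 mM glutathione and 0.01% Tween-20. The enzyme was full-length HDAC1 or HDAC6 from Sf-9 cells, GST-purified. Wells without enzyme defined 100% inhibition.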

Test [2] concerns the target T2, HDAC1 enzyme (Homo sapiens, UniProt Q13547).
T2 construct: transducing full length HDAC1 and HDAC6 genes into Sf-9 insect cells; GST; purchased SignalChem; host or cells: Sf-9 insect cells
Put plainly: HDAC1/6 Enzyme Inhibitory Assay (HDAC-Glo I/II Assay kit), HDAC1. Particulars: 1 μM test compound; wells without enzyme = 100% inhibition; read-out: HDAC1 inhibitory rate (%) (1 μM). The gist of the method: as §1

In test [3] the target is T3, HDAC9 enzyme (Homo sapiens, UniProt Q9UKV0).
T3 construct: transducing full length HDAC9 gene into Sf-9 insect cells; made in house; host or cells: Sf-9 insect cells
T3 sequence (Q9UKV0 whole entry, species assumed): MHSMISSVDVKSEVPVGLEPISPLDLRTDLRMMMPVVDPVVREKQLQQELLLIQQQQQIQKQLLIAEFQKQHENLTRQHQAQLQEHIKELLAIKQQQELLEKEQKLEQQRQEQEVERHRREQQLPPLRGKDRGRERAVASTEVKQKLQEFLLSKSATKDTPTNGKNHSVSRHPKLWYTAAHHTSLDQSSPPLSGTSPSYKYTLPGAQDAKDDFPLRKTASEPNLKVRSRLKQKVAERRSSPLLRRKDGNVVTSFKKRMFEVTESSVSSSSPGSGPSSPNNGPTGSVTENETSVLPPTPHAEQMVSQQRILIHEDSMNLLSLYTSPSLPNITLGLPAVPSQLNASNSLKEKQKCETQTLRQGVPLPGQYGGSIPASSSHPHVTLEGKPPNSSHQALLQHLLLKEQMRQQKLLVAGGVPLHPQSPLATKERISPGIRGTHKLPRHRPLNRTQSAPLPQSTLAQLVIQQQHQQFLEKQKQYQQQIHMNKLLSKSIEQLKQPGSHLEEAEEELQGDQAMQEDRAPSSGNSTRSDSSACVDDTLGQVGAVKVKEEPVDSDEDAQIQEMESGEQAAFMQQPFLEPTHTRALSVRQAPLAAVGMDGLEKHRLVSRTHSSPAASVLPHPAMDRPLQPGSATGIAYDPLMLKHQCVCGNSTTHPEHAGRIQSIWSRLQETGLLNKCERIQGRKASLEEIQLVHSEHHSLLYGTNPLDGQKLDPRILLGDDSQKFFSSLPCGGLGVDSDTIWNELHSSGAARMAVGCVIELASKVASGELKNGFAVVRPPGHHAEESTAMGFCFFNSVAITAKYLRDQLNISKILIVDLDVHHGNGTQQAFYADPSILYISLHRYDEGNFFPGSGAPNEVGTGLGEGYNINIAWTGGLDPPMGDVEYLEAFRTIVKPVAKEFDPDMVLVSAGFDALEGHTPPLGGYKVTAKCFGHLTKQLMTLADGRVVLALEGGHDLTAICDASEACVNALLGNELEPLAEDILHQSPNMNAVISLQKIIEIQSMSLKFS
Put plainly: HDAC9 Enzyme Inhibitory Assay (HDAC-Glo class IIa). The following applies: 1 μM test compound; wells without enzyme = 100% inhibition; read-out: HDAC9 inhibitory rate (%) (1 μM). In outline: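 Full-length human HDAC9 from Sf-9 cells, Ni-NTA purified, preincubated with compound for 60 min at room temperature in Tris-HCl pH 7.5 buffer (MgCl2, KCl, NaCl, glutathione, Tween-20). HDAC-Glo class IIa substrate-developer added; luminescence read after 20 min, with no-enzyme wells defining 100% inhibition.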

Molecules are shown by their SMILES. Where a name gives a salt, the structure may show the parent alone.

T2 sequence (Q13547 whole entry): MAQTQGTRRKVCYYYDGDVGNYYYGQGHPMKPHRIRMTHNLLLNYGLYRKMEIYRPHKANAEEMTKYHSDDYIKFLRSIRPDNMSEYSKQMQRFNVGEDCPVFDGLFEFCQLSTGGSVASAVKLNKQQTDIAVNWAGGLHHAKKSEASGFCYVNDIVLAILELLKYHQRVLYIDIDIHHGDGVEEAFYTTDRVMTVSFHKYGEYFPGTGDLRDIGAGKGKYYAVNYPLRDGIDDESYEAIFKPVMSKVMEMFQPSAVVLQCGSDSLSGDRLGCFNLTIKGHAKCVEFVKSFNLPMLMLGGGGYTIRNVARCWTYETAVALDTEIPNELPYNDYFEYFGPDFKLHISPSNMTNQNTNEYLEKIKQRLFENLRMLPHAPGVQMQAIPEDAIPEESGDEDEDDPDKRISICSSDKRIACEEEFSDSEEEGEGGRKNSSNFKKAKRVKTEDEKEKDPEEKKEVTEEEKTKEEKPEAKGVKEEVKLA

As to `CC(C)(C)OC(=O)N1CC[C@@H](N2Cc3ccc(-c4noc(C(F)(F)F)n4)cc3C2=O)[C@@H](c2ccccc2)C1` [Example 19, tert-butyl (3S,4R)-4-(1-oxo-6-(5-(trifluoromethyl)-1,2,4-oxadiazol-3-yl)-1,3-dihydro-2H-isoindol-2-yl)-3-phenylpiperidine-1-carboxylate], the values for the inhibition at 1 µM in test [1], in test [2] and in test [3] were 99%, 18% and 48%, respectively.
On to `CC(=O)N1CC[C@@H](N2Cc3ccc(-c4noc(C(F)(F)F)n4)cc3C2=O)[C@H](c2ccccc2)C1` [Example 20, 2-((3R,4R)-1-acetyl-3-phenylpiperidin-4-yl)-6-(5-(trifluoromethyl)-1,2,4-oxadiazol-3-yl)isoindolin-1-one], for which the values for the inhibition at 1 µM in test [1], in test [2] and in test [3] were 98%, 87% and 96%, respectively.
Turning to `CC(=O)N1CC[C@H](N2Cc3ccc(-c4noc(C(F)(F)F)n4)cc3C2=O)[C@H](c2ccccc2)C1` [Example 21, 2-((3R,4S)-1-acetyl-3-phenylpiperidin-4-yl)-6-(5-(trifluoromethyl)-1,2,4-oxadiazol-3-yl)isoindolin-1-one], the inhibition at 1 µM in test [1] was found to be 93%; in test [2], 8%; in test [3] it was 80%.
For `O=C1c2cc(-c3noc(C(F)(F)F)n3)ccc2CN1C1CCNC[C@@H]1c1ccccc1` (stereo partly drawn) [Example 22, 2-((3S,4R)-3-phenyipiperidin-4-yl)-6-(5-(trifluoromethyl)-1,2,4-oxadiazol-3-yl)isoindolin-1-one, hydrochloride], the inhibition at 1 µM worked out at 100% in test [1], 85% in test [2] and 96% in test [3].
Taken in the same sequence, the figures for `CC(=O)N1CC[C@@H](N2Cc3ccc(-c4noc(C(F)(F)F)n4)cc3C2=O)[C@@H](c2ccccc2)C1` [Example 23, 2-((3S,4R)-1-acetyl-3-phenylpiperidin-4-yl)-6-(5-(trifluoromethyl)-1,2,4-oxadiazol-3-yl)isoindolin-1-one] were 98%, 58% and 84%.
`O=C1c2cc(-c3noc(C(F)(F)F)n3)ccc2CN1[C@H]1CCc2ccccc21` [Example 24, 2-((1S)-2,3-dihydro-1H-inden-1-yl)-6-(5-(trifluoromethyl)-1,2,4-oxadiazol-3-yl)isoindolin-1-one]: the values for the inhibition at 1 µM in test [1], in test [2] and in test [3] were 95%, 6% and 52%, respectively.
For `O=C1c2cc(-c3noc(C(F)(F)F)n3)ccc2CN1[C@@H]1CCc2ccccc21` [Example 25, 2-((1R)-2,3-dihydro-1H-inden-1-yl)-6-(5-(trifluoromethyl)-1,2,4-oxadiazol-3-yl)isoindolin-1-one], the inhibition at 1 µM in test [1] amounted to 92%; in test [2], 7%; in test [3] it was 39%.
On the same counts, the results for `CC(C)(C)OC(=O)N[C@@H]1CCCC[C@H]1N1Cc2ccc(-c3noc(C(F)(F)F)n3)cc2C1=O` [Example 26, tert-butyl ((1R,2R)-2-(1-oxo-6-(5-(trifluoromethyl)-1,2,4-oxadiazol-3-yl)-1,3-dihydro-2H-isoindol-2-yl)cyclohexyl)carbamate] are 98%, 11% and 47%.
Turning to `CC(C)(C)OC(=O)N[C@H]1CCCC[C@@H]1N1Cc2ccc(-c3noc(C(F)(F)F)n3)cc2C1=O` [Example 27, tert-butyl ((1S,2S)-2-(1-oxo-6-(5-(trifluoromethyl)-1,2,4-oxadiazol-3-yl)-1,3-dihydro-2H-isoindol-2-yl)cyclohexyl)carbamate], the figures for the inhibition at 1 µM in test [1], in test [2] and in test [3] were 36%, 16% and 76%, respectively.
On to `N[C@@H]1CCCC[C@H]1N1Cc2ccc(-c3noc(C(F)(F)F)n3)cc2C1=O` [Example 28, 2-((1R,2R)-2-aminocyclohexyl)-6-[5-(trifluoromethyl)-1,2,4-oxadiazol-3-yl)isoindolin-1-one], for which the inhibition at 1 µM in test [1] is 89%; in test [2], 3%; in test [3] it was 78%.
Regarding `N[C@H]1CCCC[C@@H]1N1Cc2ccc(-c3noc(C(F)(F)F)n3)cc2C1=O` [Example 29, 2-((1S,2S)-2-aminocyclohexyl)-6-(5-(trifluoromethyl)-1,2,4-oxadiazol 3-yl)isoindolin-1-one], the inhibition at 1 µM in test [1] is 34%; in test [2] it was -2%; in test [3], 45%.
`CC(C)(C)OC(=O)N1CC[C@H](N2Cc3ccc(-c4noc(C(F)(F)F)n4)cc3C2=O)[C@@H](c2ccccc2)C1` [Example 30, tert-butyl (3S,4S)-4-(1-oxo-6-(5-(trifluoromethyl)-1,2,4-oxadiazol-3-yl)-1,3-dihydro-2H-isoindol-2-yl)-3-phenylpiperidine-1-carboxylate]: the inhibition at 1 µM worked out at 97% in test [1], 30% in test [2] and 84% in test [3].
On to `O=C1c2cc(-c3noc(C(F)(F)F)n3)ccc2CN1[C@H]1CCNC[C@@H]1c1ccccc1` [Example 31, 2-((3S,4S)-3-phenylpiperidin-4-yl)-6-(5-(trifluoromethyl)-1,2,4-oxadiazol-3-yl)isoindolin-1-one], for which the inhibition at 1 µM in test [1] came out at 99%; in test [2] it was 78%; in test [3], 97%.
As to `O=C(N[C@@H]1CCCC[C@H]1N1Cc2ccc(-c3noc(C(F)(F)F)n3)cc2C1=O)C1CC1` [Example 32, N-((1R,2R)-2-(1-oxo-6-(5-(trifluoromethyl)-1,2,4-oxadiazol-3-yl)-1,3-dihydro-2H-isoindol-2-yl)cyclohexyl)cyclopropanecarboxamide], the values for the inhibition at 1 µM in test [1], in test [2] and in test [3] were 99%, 5% and 52%, respectively.
In the case of `O=C(N[C@H]1CCCC[C@@H]1N1Cc2ccc(-c3noc(C(F)(F)F)n3)cc2C1=O)C1CC1` [Example 33, N-((1S,2S)-2-(1-oxo-6-(5-(trifluoromethyl)-1,2,4-oxadiazol-3-y)-1,3-dihydro-2H-isoindol-2-yl)cyclohexyl)cyclopropanecarboxamide], the results for the inhibition at 1 µM in test [1], in test [2] and in test [3] were 83%, 7% and 46%, respectively.
Taken in the same sequence, the figures for `CC1(C(=O)N[C@@H]2CCCC[C@H]2N2Cc3ccc(-c4noc(C(F)(F)F)n4)cc3C2=O)CC1` [Example 36, 1-methyl-N-((1R,2R)-2-(1-oxo-6-(5-(trifluoromethyl)-1,2,4-oxadiazol-3-yl)-1,3-dihydro-2H-isoindol-2-yl)cyclohexyl) cyclopropanecarboxamide] were 98%, 12% and 66%.
`O=C(N[C@@H]1CCCC[C@H]1N1Cc2ccc(-c3noc(C(F)(F)F)n3)cc2C1=O)C1CCOCC1` [Example 37, N-((1R,2R)-2-(1-oxo-6-(5-(trifluoromethyl)-1,2,4-oxadiazol-3-yl)-1,3-dihydro-2H-isoindol-2-yl)cyclohexyl)tetrahydro-2H-pyran-4-carboxamide]: the inhibition at 1 µM in test [1] is 96%; in test [2] it was 1%; in test [3] it was 19%.
